Earlier results as cited in patent publication US7285563B2, “Heteroaromatic urea derivatives as VR-1 receptor modulators for treating pain” (priority 2002, dated 2007).

Target: VR1 (Rattus norvegicus, UniProt O35433)
Sequence (O35433 whole entry): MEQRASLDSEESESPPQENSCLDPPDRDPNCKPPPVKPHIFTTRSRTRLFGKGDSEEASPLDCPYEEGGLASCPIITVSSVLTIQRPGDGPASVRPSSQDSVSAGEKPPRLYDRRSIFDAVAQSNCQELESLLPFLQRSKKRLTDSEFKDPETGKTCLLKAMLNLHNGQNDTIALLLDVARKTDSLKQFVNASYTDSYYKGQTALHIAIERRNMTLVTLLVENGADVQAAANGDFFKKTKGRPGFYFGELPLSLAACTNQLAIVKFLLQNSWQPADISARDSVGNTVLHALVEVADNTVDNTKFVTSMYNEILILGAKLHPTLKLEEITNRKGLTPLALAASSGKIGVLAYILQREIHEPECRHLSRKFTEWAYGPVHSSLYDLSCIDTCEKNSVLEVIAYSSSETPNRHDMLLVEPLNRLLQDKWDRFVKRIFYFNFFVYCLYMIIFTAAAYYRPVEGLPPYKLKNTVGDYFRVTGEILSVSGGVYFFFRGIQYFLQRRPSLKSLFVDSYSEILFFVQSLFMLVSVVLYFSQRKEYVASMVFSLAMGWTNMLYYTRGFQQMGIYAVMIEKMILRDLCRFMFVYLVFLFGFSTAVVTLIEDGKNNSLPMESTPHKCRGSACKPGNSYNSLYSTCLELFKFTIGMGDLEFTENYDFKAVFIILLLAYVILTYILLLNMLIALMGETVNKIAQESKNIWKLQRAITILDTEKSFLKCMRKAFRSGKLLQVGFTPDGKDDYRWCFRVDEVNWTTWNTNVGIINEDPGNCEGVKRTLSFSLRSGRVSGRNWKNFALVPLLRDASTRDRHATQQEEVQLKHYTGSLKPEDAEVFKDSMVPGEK

Row | SMILES | antagonist of VR1 (Wahl et al., Mol. Pharmacol., 59:9, 2001) | affinity for VR1 (Walpole et al., J. Med. Chem., 37:1942, 1994)
1 | C=C(C)[C@]12C[C@@H](C)[C@@]34O[C@](Cc5ccccc5)(O[C@@H]1[C@@H]3C=C(COC(=O)Cc1cc(I)c(O)c(OC)c1)C[C@]1(O)C(=O)C(C)=C[C@@H]41)O2 [Iodo-resiniferatoxin] | nanomolar antagonist | 
2 | Oc1cc2c(cc1O)CN(C(=S)NCCc1ccc(Cl)cc1)CCC2 [capsazepine] |  | micromolar affinity
